In PubChem BioAssay (NCI) one finds TGI and GI50 data, which are given here for eleven molecules.

Test in all cases: NCI anticancer screen, dose series, 48 h
The test system of test [1] is RPMI-8226 leukemia.
Test [2] concerns SK-MEL-28 melanoma.
Test [3] concerns KM12 colon.
The subject of test [4] is RXF 393 renal.
Test [5] concerns SNB-19 CNS.
Test [6] deals with A498 renal.
For test [7], the system named is 786-0 renal.
The test system of test [8] is OVCAR-4 ovarian.
In test [9] the test system is COLO 205 colon.
For test [10], the system named is HCT-116 colon.

Molecules are shown by their SMILES.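 A five-concentration, 48-hour dose response in 96-well plates underlies each endpoint, interpolated linearly between surrounding concentrations. Here, GI50 denotes the concentration required for 50% inhibition of growth. TGI: total growth inhibition.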

For the molecule `O=C(O)CN(c1ccc(Cl)cc1)S(=O)(=O)c1ccccc1`, the TGI in [1], in [2], in test [3], in [4], in [5] and in [6] was greater than 100 µM in each case. Also, the TGI in test [7], in [8] and in test [9] was greater than 100 µM throughout.
Take `O=C(CCCc1c[nH]c2ccccc12)NC1CC(=O)c2c(Br)sc(Br)c21` (stereo unspecified): the GI50 in [1] is 4.37 µM; in test [2], 2.77 µM; in test [3] it was 23.5 µM; in [4], 14.7 µM; in test [5] it was 14.3 µM; in [6], 24.2 µM. The GI50 in [7] is 19.2 µM; in test [8], 12.8 µM; in test [9], 19.8 µM. Moreover, the TGI in test [1] was greater than 100 µM; in [2], 9.02 µM; in test [3] it was 71.2 µM; in [4] it was 80.8 µM; in test [5], 29 µM; in [6] it was 40.5 µM. In addition, the TGI in [7] stood at 34.9 µM; in test [8], 25.9 µM; in test [9] it was 41.3 µM.
With `COc1cc2cc(Oc3ccc(NC(=O)Nc4cccc(C(F)(F)F)c4)cc3)c(C)nc2cc1OCCN1CCCCC1`, the GI50 in test [2] was 1.76 µM; in [3] it was 1.72 µM; in [5], 1.66 µM; in [6], 1.45 µM; in [7] it was 1.72 µM; in [8], 1.66 µM. Also, the TGI in test [2] stood at 3.14 µM; in test [3], 3.3 µM; in test [5], 3.1 µM; in test [6], 2.9 µM; in test [7], 3.21 µM; in test [8], 3.39 µM.
Turning to `Cn1ncc2cc3c(Nc4ccc(Cl)cc4)cccc3nc21`, the TGI in test [1] is 34.2 µM; in test [2] it was 35.8 µM; in [3], 35.6 µM; in test [4] it was 37.6 µM; in test [5], greater than 100 µM; in [7], greater than 100 µM. The TGI in test [8] was 40 µM; in test [9] it was 28.1 µM.
Consider `COc1cc2c(cc1OC)C(=O)C(Br)CC2` (stereo unspecified), for which the GI50 in test [2] was 4.85 µM; in test [3], 5.77 µM; in [10], 1.74 µM; in [4], 1.55 µM; in test [5] it was 8.96 µM; in [6], 11.3 µM. Moreover, the GI50 in [7] was 4.01 µM; in test [9], 2.03 µM. In addition, the TGI in test [2] is 16.3 µM; in [3] it was 19.3 µM; in [10] it was 3.72 µM; in [4] it was 3.01 µM; in test [5] it was 21.3 µM; in test [6] it was 23.6 µM. Moreover, the TGI came out at 13.4 µM in [7] and 3.72 µM in test [9].
`O=C1C2=C(c3ccccc31)C(c1ccc(Cl)cc1)N1C(=O)CCSC1=N2` (stereo unspecified): the TGI in test [1], in [2], in test [3], in test [10], in test [5] and in test [6] was greater than 100 µM each time. The TGI in test [7], in test [8] and in test [9] was greater than 100 µM each time.
In the case of `Cc1cc(NC(=O)C2c3ccccc3C(=O)N(CC(C)C)C2c2cccs2)no1` (stereo unspecified), the GI50 in test [1] was 45.5 µM; in test [2], greater than 100 µM; in [3], 48.4 µM; in test [10], 49.1 µM; in [4], 27.5 µM; in test [5], 46.2 µM. Also, the GI50 in test [7] was greater than 100 µM; in test [8], 31.3 µM; in test [9], greater than 100 µM. Also, the TGI in test [1], in [2], in test [3], in test [10], in test [4] and in [5] was greater than 100 µM throughout. The TGI in test [7], in [8] and in test [9] was greater than 100 µM in each case.
Consider `CC(=O)[CH-]C(=O)c1ccccc1.CC(=O)[CH-]C(=O)c1ccccc1.CCN(CC)CC[O-].CCN(CC)CC[O-].Cl.[Ti+4]`, for which the GI50 was 38.3 µM in [1]; 32.9 µM in test [2]; 20 µM in test [3]; 27.2 µM in [10]; 23.7 µM in [5]; 26.2 µM in test [6]. The GI50 in test [7] is 45.5 µM; in test [8], 56.5 µM. The TGI in test [1] was greater than 100 µM; in test [2], 92.6 µM; in test [3], 59.6 µM; in test [10] it was greater than 100 µM; in test [5] it was 69.5 µM; in [6], 72.5 µM. Also, the TGI in test [7] and in [8] was greater than 100 µM throughout.
Regarding `CC12OC(C(=O)C13CC3)C1C(=O)c3ccccc3C(=O)C12` (stereo unspecified), the GI50 in test [2] was 21.6 µM; in test [3], 19.9 µM; in [10], 34 µM; in [4], 10 µM; in test [5] it was 36.4 µM; in [7] it was 18.2 µM. In addition, in test [9], the GI50 was 89 µM. The TGI in test [2] was 62.1 µM; in [3], 52 µM; in test [10], greater than 100 µM; in test [4] it was 24.9 µM; in test [5], greater than 100 µM; in [7], 37.6 µM. The molecule further registered a TGI in test [9] greater than 100 µM.
Turning to `C/C(=N\N(C)C)c1sc(-n2nc(-c3ccccc3)cc2-c2ccccc2)nc1C`, the TGI in [2], in test [3], in test [10], in test [4], in [5] and in test [6] was greater than 100 µM in each case. The TGI in [7], in [8] and in test [9] was greater than 100 µM each time.
As to `Cn1nc(-c2ccccc2NC(=O)C(F)(F)F)c(=O)n(C)c1=S`, the TGI in [2] was 30.1 µM; in test [3] it was 80.9 µM; in [10], greater than 100 µM; in test [4], greater than 100 µM; in test [5], greater than 100 µM; in test [7], greater than 100 µM. In [8], this molecule showed a TGI of 62.3 µM.
